Literature values, collected in patent publication US8951536B2, “N-hydroxyamidinoheterocycles as modulators of indoleamine 2,3-dioxygenase” (Incyte Corporation, priority 2005, dated 2015).

How the values were obtained:
[1] = test system: tumor growth in mice; conditions: Muller et al. 2005
[2] = test system: LLC tumors; conditions: LLC tumors in C57Bl/6 mice, versus placebo; Friberg et al.
[3] = test system: P815 tumor; conditions: pre-immunized immune-competent mice; Uyttenhove et al.
[4] = test system: pregnant mice (carrying syngeneic or allogeneic fetuses); conditions: pregnant mice exposed to 1MT; Munn et al. 1998
[5] = test system: HeLa cells co-cultured with peripheral blood lymphocytes (PBLs); conditions: Logan et al. 2002
[6] = test system: CD123-positive dendritic cells; conditions: mature and immature CD123-positive dendritic cells; Munn et al. 2002

SMILES | tumor growth with chemotherapeutic agents [1] | formation of tumors [2] | growth of tumors [3] | rejection of allogeneic concepti [4] | reduction in PBL proliferation upon treatment with IL2 [5] | IDO suppressive activity on T-cell activity [6]
Cn1cc(CC(N)C(=O)O)c2ccccc21 (stereo not drawn) [Example 1-MT] | can synergize with chemotherapeutic agents to reduce tumor growth in mice | markedly delayed | inhibited | – | – | –
Cn1cc(C[C@H](N)C(=O)O)c2ccccc21 [1-methyl-tryptophan] | – | – | – | rapid, T cell-induced rejection of all allogeneic concept | reversed | blocked
